Experimental data taken from US8247538B2, “Preparation method of radioisotope labeling compound using carbon nanotube” (Korea Atomic Energy Research Institute, priority 2006, dated 2012).

Assay: In vivo dynamic kinetics, gamma camera imaging after intravenous injection
Parameters: species or system New Zealand White male rabbits
Conditions: rabbits, 100 μCi/0.1 ml into left ear vein
Protocol: The ^99mTc-2,6-diisopropylacetanilidoiminodiacetic acid prepared in Example 1 was assayed for in vivo dynamic kinetics as follows.
After 6-week-old New Zealand White male rabbits (2887.6±101.5 g, n=3) were anesthetized with ketamine and xylazine, the radioactive compound of Example 1 was injected at a dose of 100 μCi/0.1 ml into the left ear vein of each of the rabbits. All of the rabbits were placed in a pronating posture. Moving pictures were taken for 30 min of each of the rabbits using a gamma camera fitted with a low energy, multipurpose collimator while 16 still pictures were also taken at predetermined time intervals. The image analyzer was set to 140 KeV with a 20% energy window. Image data were analyzed under the dynamic procedure of a Microdelta system (Simens, USA). The static images were taken at 1.52, 3.45, 5.37, 7.30, 9.22, 11.15, 13.07, 15.00, 16.52, 18.45, 20.37, 22.30, 24.22, 26.15, 28.07 and 30 min after the injection, and the results are given in FIG. 3.

In the case of “^99mTc-2,6-diisopropylacetanilidoiminodiacetic acid [Example 1]”, the “in vivo distribution seen in gamma camera images (FIG. 3)” value (images 1.52-30 min after injection) is reported as “detected prominently in the hepatobiliary system, with the highest concentration at the liver” and the “contrast ratio between images taken of the liver and of other organs, compared with conventional contrast media for imaging the hepatobiliary system” value (imaging for 30 min) is reported as “higher”.
